The source of these data is patent publication US12291513B2, “Pyridinium derivatives made by hydrothermal synthesis for use as anolytes in electrochemical cells” (Wisconsin Alumni Research Foundation, priority 2021, dated 2025).

For data set [1] the following is noted: cited from earlier work; for Anolyte-limiting RFB Stability / RFB Viologen Molarity (1e^−): Table 1, comparison anolytes.
The conditions of data set [2]: same electrolyte conditions; cited from earlier work.
Data set [3] in a line: Cyclic voltammetry (formal potentials, Randles-Sevcik diffusion coefficients). It counts as physicochemical. The protocol:
(§1) CV and EIS experiments were ran using a PalmSens4 potentiostat with the PSTrace software. Electrochemical experiments were performed in 1.0 M NaCl supporting electrolyte using 15 mM of active material at room temperature (18° C.). Formal potentials for the redox couples were estimated by taking the average potential between the cathodic and anodic peak. Diffusional behavior was investigated by varying the scan rate between 10-100 mV·s^−1 for the first electron reduction and 50-200 mV·s^−1 for the second electron reduction, and the diffusion constants of the reduced and oxidized states (D^R and D^O) were determined via the Randles-Sevcik equation assuming ideal reversible behavior (FIG. 12D). Potentiostatic EIS measurements were used for determination of a combined diffusional constant of the reduced and oxidized states (D^EIS) and of the standard electron kinetic rate constant (k^o). These EIS measurements were performed at the formal reduction potential (held for 30 seconds before measurement) in which the concentration of the two redox states at the electrode surface were assumed to be the same and equal to half of the initially prepared redox species concentration.
(§2) A glassy carbon working electrode (CH Instruments, 0.0707 cm^2), a saturated calomel reference electrode (SCE, CH Instruments, +0.241 V vs. SHE), and a platinum wire counter electrode were used for both CV and EIS measurements. The working electrode was polished with 1 μm, 0.3 μm, and 0.05 μm alumina slurry successively. All electrodes were rinsed with deionized water in between measurements.
CVs were taken at various scan rates in order to determine the diffusion coefficients via the Randles-Sevcik relation (Eqn. 1) where ip is the peak current in Amps, n is number of electrons transferred, F is Faraday's constant, A is electrode surface area in cm^2, C is the redox species concentration in mole·cm^−3, R is the ideal gas constant, T is temperature, D is the diffusion coefficient, and v is scan rate in V/s. The anodic peak current […] determines the diffusion coefficient of the reduced state (D^R) while the cathodic peak current (ip,a) determines the diffusion coefficient of the oxidized state (D^O). ip=0.4463n^3/2·F^3/2·A·C·R^−1/2·T^−1/2·D^1/2·v^1/2 Eqn. 1

The conditions of data set [4]: Selemion DSV membrane; cited from earlier work.
Data set [5] in a line: Electrochemical impedance spectroscopy (EIS). It counts as physicochemical. Particulars: for EIS D / EIS i^0 / EIS k^0: Example 2. The method, then:
as §1, §2
Potentiostatic EIS measurements were taken at the formal potential in which the reduction and oxidation processes are at equilibrium and the concentrations of the reduced and oxidized states can be assumed equal. This permitted simple calculation of the standard kinetic rate constant (k^o) via Eqn. 2 where R is the ideal gas constant, T is temperature, n is number of electrons, RCT is the charge-transfer resistance, F is Faraday's constant, A is the electrode surface area in cm^2, and C is the concentration of either the oxidized or reduced form at the electrode surface in mole cm^−3 (which is assumed to be half of the initially prepared redox species concentration, C═C^O═C^R=0.5 Cinitial).
A combined diffusion coefficient of the reduced and oxidized state (D^EIS) can also be determined using Eqn. 3, where σ is the Warburg diffusional impedance variable and all other variables have the previously defined meaning.
RCT and σ can be determined by fitting the impedance spectrum to the ideal Randles equivalent circuit for a 3-electrode system where Ru is the uncompensated resistance between the working and reference electrode, RCT is the charge transfer resistance between the working electrode and the redox species, WD is the Warburg diffusional element, and CPE is the constant phase element that represents capacitive behavior of the working electrode.
The raw data was fitted based on this equivalent circuit using the Z-Fitting tool on the PSTrace software and with the Levenberg-Marquardt algorithm across the entire measured frequency range. For the second redox state, D2^EIS were 3.6×10^−6 cm^2·s^−1 and 3.8×10^−6 cm^2·s^−1 and k2^o were 0.13 cm·s^−1 and 0.23 cm·s^−1 for Dex-Vi and BTMAP-Vi, respectively.

The nature of another data set: Solubility in pure water. Particulars: Example 2. It counts as physicochemical. The protocol: A measured amount of Dex-Vi was partially dissolved in pure water. The solution was then centrifuged. The supernatant was decanted, and the volume was measured. The remainder of the solid was dried in a vacuum oven and weighed. Finally, the weight of the remaining Dex-Vi was subtracted from the initial added mass to obtain the amount dissolved in the supernatant, permitting calculation of the maximum soluble concentration.

The nature of the next data set: Viscosity (rheometer). The data set is classed as physicochemical. Particulars: 1M, 25° C. The protocol: Viscosity measurements were carried out using an Ares G2 rheometer (TA Instruments) with an advanced Peltier system at 25° C.
A short description of a further data set: Degradation in 1M KOH. It counts as physicochemical.
The conditions of data set [6]: Table 1, MV; cited from earlier work.
For data set [7] the following is noted: Table 1, MV; cited from earlier work. The source holds these as a separate data set.

SMILES strings stand for the structures. Like-named read-outs stand apart in the source and are kept apart here. Marks after values point to notes of the source that are not given here.

With `C[N+](C)(C)CCC[n+]1ccc(-c2cc[n+](CCC[N+](C)(C)C)cc2)cc1.[Cl-].[Cl-].[Cl-].[Cl-]` [BTMAP-Vi, bis(3-trimethylammonio)propyl viologen tetrachloride, reference compound], in data set [1] (DeBruler et al., 2017), the “reported concentration when both electrons are utilized” value was 0.25 M. Moreover, in data set [1], the “Anolyte-limiting RFB Stability” value is 36.5% decay/year and the “RFB Viologen Molarity (1e^−)” value is listed as 1.5. Moreover, in [2], the “reported symmetric cell decay rate” value was 0.0016 % per day. The “first electron formal potential (E1^0)” value in data set [3] (15 mM in 1.0 M NaCl, 18° C.) is on record as −0.349 V vs. SHE. In data set [3] (Table 1), the “E1^0” value is given as −0.349 V vs. SHE and the “E2^0” value is −0.713 V vs. SHE. Also, in [3] (first redox state, 3+ species), the “reduced state diffusion coefficient (D1^R)” value was 2.7×10^−6 cm^2·s^−1. The “oxidized state diffusion coefficient (D1^O)” value in [3] (first redox state, 4+ species) was 2.4×10^−6 cm^2·s^−1. In addition, in data set [3] (second redox state), the “D2^O” value is reported as 2.3×10^−6 cm^2·s^−1 and the “D2^R” value is listed as 2.5×10^−6 cm^2·s^−1. In addition, the “second electron formal potential (E2^0)” value in data set [3] (vs. SHE, 15 mM in 1.0 M NaCl, 18° C.) is −0.713 V. The “permeance, reported value” in data set [4] is listed as 6.7×10^−10 cm^2·s^−1. In data set [5] (Table 1), the “k1^0” value is 0.089 cm/s. Moreover, in data set [5] (first reduction), the “combined diffusion coefficient (D1^EIS)” value is 4.1×10^−6 cm^2·s^−1 and the “standard rate constant (k1^0)” value was determined as 0.089 cm/s. In [5] (second redox state), the “D2^EIS” value was 3.8×10^−6 cm^2·s^−1 and the “k2^o” value stood at 0.23 cm/s.

Turning to `OCCCC[n+]1ccc(-c2cc[n+](CCCCO)cc2)cc1.[Cl-].[Cl-]` [ButOH-Vi], the “Water Solubility” value in the data set “Solubility in pure water” is 1360 mM. Moreover, the “Viscosity at 1M, 25° C.” value in “Viscosity (rheometer)” turned out to be 1.6 cP. In addition, in data set [5], the “EIS D” value stood at 2.36E−05 cm^2/s, the “EIS i^0” value worked out at 1.25E−05 A and the “EIS k^0” value was found to be 0.000244 cm/s.

Take `C[N+](C)(C)CC(O)C[n+]1ccc(-c2cc[n+](CC(O)CO)cc2)cc1.[Cl-].[Cl-].[Cl-]` (centres unmarked) [Dex-DiOH-Vi]: the “Water Solubility” value in “Solubility in pure water” was 1730 mM. Besides, the “Degradation in 1M KOH, k” value in “Degradation in 1M KOH” amounted to 4.06e-06 s⁻¹. For the same molecule, in the data set “Viscosity (rheometer)”, the “Viscosity at 1M, 25° C.” value turned out to be 3.9 cP. In [5], the “EIS D” value is given as 5.562E−06 cm^2/s, the “EIS i^0” value was 6.20E−03 A and the “EIS k^0” value turned out to be 0.121 cm/s.

As for `C[N+](C)(C)CC(O)C[n+]1ccc(-c2cc[n+](CC(O)CS(=O)(=O)[O-])cc2)cc1.[Cl-].[Cl-]` (centres unmarked) [Dex-SHOP-Vi], the “Water Solubility” value in “Solubility in pure water” stood at 1270 mM. In data set [5], the “EIS D” value is 4.497E−06 cm^2/s, the “EIS i^0” value is 1.57E−03 A and the “EIS k^0” value is 0.0307 cm/s.

As for `O=S(=O)([O-])CC[n+]1ccc(-c2cc[n+](CC(O)CO)cc2)cc1.[Cl-]` (centres unmarked) [DiOH-EtS-Vi], the “Water Solubility” value in the data set “Solubility in pure water” was 1260 mM. Moreover, in “Degradation in 1M KOH”, the “Degradation in 1M KOH, k” value was 4.4e-06 s⁻¹. Further, the “Viscosity at 1M, 25° C.” value in “Viscosity (rheometer)” amounted to 2.9 cP. In data set [5], the “EIS D” value is recorded as 8.134E−06 cm^2/s, the “EIS i^0” value was determined as 7.76E−03 A and the “EIS k^0” value was determined as 0.152 cm/s.

Regarding `O=S(=O)([O-])CC(O)C[n+]1ccc(-c2cc[n+](CC(O)CO)cc2)cc1.[Cl-]` (centres unmarked) [DiOH-SHOP-Vi], the “Water Solubility” value in the data set “Solubility in pure water” was <500 mM. In data set [5], the “EIS D” value is 5.419E−06 cm^2/s, the “EIS i^0” value was 4.06E−03 A and the “EIS k^0” value was found to be 0.0794 cm/s.

As to `OCC(O)C[n+]1ccc(-c2cc[n+](CC(O)CO)cc2)cc1.[Cl-].[Cl-]` (centres unmarked) [DiOH-Vi], in “Solubility in pure water”, the “Water Solubility” value was found to be 1990 mM. For the same molecule, the “Degradation in 1M KOH, k” value in the data set “Degradation in 1M KOH” stood at 2.296e-06 s⁻¹. Besides, the “Viscosity at 1M, 25° C.” value in “Viscosity (rheometer)” is recorded as 3.0 cP. Moreover, in data set [5], the “EIS D” value is recorded as 6.622E−06 cm^2/s, the “EIS i^0” value turned out to be 1.14E−03 A and the “EIS k^0” value came to 0.0222 cm/s.

As to `OCC[n+]1ccc(-c2cc[n+](CCO)cc2)cc1.[Cl-].[Cl-]` [EtOH-Vi], the “Water Solubility” value in the data set “Solubility in pure water” is 2510 mM. The “Viscosity at 1M, 25° C.” value in “Viscosity (rheometer)” was 2.4 cP. Moreover, in data set [5], the “EIS D” value was determined as 9.868E−06 cm^2/s, the “EIS i^0” value was determined as 4.53E−03 A and the “EIS k^0” value amounted to 0.0885 cm/s.

Take `O=S(=O)([O-])CC[n+]1ccc(-c2cc[n+](CCS(=O)(=O)[O-])cc2)cc1` [EtS-Vi]: the “Water Solubility” value in the data set “Solubility in pure water” was 530 mM. In addition, in data set [5], the “EIS D” value was 5.2921E−06 cm^2/s, the “EIS i^0” value is reported as 3.47E−03 A and the “EIS k^0” value was found to be 0.0677 cm/s.

Regarding `C[n+]1ccc(-c2cc[n+](C)cc2)cc1` [MV], in [6], the “k1^0” value is 0.00028 cm/s. In addition, in data set [1], the “Anolyte-limiting RFB Stability” value is listed as >547.5%* % decay/year and the “RFB Viologen Molarity (1e^−)” value is given as 0.5. For the same molecule, the “E1^0” value in data set [7] is given as −0.450/NA V vs. SHE.
